In publication PMC10828660 (Heliyon, 2024):

Legend:
HepG2 = assay: MTT anti-proliferative assay against HepG2; format: cell-based; settings: Homo sapiens, HepG2, read-out: HepG2 IC50
MCF-7 = assay: MTT anti-proliferative assay against MCF-7; format: cell-based; settings: Homo sapiens, MCF7, read-out: MCF-7 IC50
VEGFR-2 = VEGFR-2 (Homo sapiens, UniProt P35968); assay: biochemical
Vero cells = assay: In vitro safety assay on normal Vero cells; format: cell-based
MCF-7 cells [1] = assay: Cell cycle analysis by flow cytometry; format: cell-based, Human
MCF-7 cells [2] = assay: Annexin-V/propidium iodide apoptosis analysis; format: cell-based, Human
MCF-7 cells [3] = assay: Wound healing; format: cell-based, Human

Chain of VEGFR-2 (P35968 20-1356): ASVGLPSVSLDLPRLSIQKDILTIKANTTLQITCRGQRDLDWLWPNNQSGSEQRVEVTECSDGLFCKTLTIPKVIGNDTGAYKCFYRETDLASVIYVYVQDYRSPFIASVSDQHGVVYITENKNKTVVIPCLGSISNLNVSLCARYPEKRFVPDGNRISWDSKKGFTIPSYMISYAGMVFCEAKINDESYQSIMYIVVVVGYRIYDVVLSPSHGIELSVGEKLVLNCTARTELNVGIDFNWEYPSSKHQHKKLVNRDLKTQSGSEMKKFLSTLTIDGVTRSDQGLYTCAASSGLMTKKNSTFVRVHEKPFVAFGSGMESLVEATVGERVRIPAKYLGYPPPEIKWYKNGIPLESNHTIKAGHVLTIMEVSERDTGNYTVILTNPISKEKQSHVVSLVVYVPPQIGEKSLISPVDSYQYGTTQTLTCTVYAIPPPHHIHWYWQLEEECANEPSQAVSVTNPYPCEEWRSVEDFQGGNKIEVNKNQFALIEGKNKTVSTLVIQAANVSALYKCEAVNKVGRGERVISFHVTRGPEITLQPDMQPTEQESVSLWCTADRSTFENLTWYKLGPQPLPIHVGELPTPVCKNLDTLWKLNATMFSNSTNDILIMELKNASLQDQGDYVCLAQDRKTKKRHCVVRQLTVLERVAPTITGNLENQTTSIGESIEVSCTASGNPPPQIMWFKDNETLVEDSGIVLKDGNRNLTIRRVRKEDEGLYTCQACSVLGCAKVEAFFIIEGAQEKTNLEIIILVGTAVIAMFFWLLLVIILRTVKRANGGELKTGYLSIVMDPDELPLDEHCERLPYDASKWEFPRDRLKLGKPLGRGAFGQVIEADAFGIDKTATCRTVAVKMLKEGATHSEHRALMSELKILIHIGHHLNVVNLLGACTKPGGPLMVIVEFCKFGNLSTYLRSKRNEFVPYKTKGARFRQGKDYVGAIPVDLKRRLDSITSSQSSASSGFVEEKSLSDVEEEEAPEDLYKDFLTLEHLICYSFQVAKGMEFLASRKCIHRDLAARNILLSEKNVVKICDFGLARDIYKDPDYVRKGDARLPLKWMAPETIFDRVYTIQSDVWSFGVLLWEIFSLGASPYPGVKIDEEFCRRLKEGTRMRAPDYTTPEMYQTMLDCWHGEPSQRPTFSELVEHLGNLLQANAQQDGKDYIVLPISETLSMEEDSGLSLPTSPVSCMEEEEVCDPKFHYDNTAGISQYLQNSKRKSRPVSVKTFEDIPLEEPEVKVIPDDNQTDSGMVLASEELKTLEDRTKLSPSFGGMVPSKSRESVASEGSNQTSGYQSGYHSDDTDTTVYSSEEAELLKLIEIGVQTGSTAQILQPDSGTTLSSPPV

O=C(CN1C(=O)SC(=Cc2ccccc2Cl)C1=O)Nc1ccc(C(=O)NNc2ccccc2)cc1 [Compound 18, 2-(5-(2-Chlorobenzylidene)-2,4-dioxothiazolidin-3-yl)-N-(4-(2-phenylhydrazine-1-carbonyl)phenyl)acetamide]
IC50 (HepG2): 4700 ± 100 nM
IC50 (MCF-7): 1760 ± 20 nM
IC50 (VEGFR-2): 2660 ± 112 nM

O=C(CN1C(=O)SC(=Cc2ccccc2Cl)C1=O)Nc1ccc(C(=O)NNC(=O)c2cccc(Cl)c2)cc1 [Compound 19, N-(4-(2-(3-chlorobenzoyl)hydrazine-1-carbonyl)phenyl)-2-(5-(2-chlorobenzylidene)-2,4dioxothiazolidin-3-yl)acetamide]
IC50 (HepG2): 3060 ± 20 nM
IC50 (MCF-7): 2290 ± 190 nM
IC50 (VEGFR-2): 323 ± 14 nM

O=C(CN1C(=O)SC(=Cc2ccccc2Cl)C1=O)Nc1ccc(C(=O)NNC(=O)c2ccccc2O)cc1 [Compound 20, 2-(5-(2-Chlorobenzylidene)-2,4-dioxothiazolidin-3-yl)-N-(4-(2-(2-hydroxybenzoyl) hydrazine-1-carbonyl)phenyl)acetamide]
IC50 (HepG2): 1140 ± 30 nM
IC50 (MCF-7): 660 ± 30 nM
IC50 (VEGFR-2): 210 ± 9 nM

O=C(CN1C(=O)SC(=Cc2ccc(Cl)cc2Cl)C1=O)Nc1ccc(C(=O)Nc2cccc(Cl)c2)cc1 [Compound 21, N-(3-chlorophenyl)-4-(2-(5-(2,4-dichlorobenzylidene)-2,4-dioxothiazolidin-3-yl)acetamido)benzamide]
IC50 (HepG2): 840 ± 10 nM
IC50 (MCF-7): 680 ± 10 nM
IC50 (VEGFR-2): 1660 ± 70 nM

O=C(CN1C(=O)SC(=Cc2ccc(Cl)cc2Cl)C1=O)Nc1ccc(C(=O)NNC(=O)c2ccccc2)cc1 [Compound 22, N-(4-(2-benzoylhydrazine-1-carbonyl)phenyl)-2-(5-(2,4-dichlorobenzylidene)-2,4-dioxothiazolidin-3-yl)acetamide]
IC50 (HepG2): 2040 ± 60 nM
IC50 (MCF-7): 1210 ± 40 nM
IC50 (VEGFR-2): 79 ± 3 nM
Selectivity index HepG2 (Vero cells; IC50 Vero divided by IC50 HepG2): 1.95
Selectivity index MCF-7 (Vero cells; IC50 Vero divided by IC50 MCF-7): 3.28
Cell cycle arrest phase (MCF-7 cells [1]; MCF-7, 1.21 μM): S phase
Cell cycle distribution G2/M (MCF-7 cells [1]; MCF-7, 1.21 μM for 72 h, control 16.35): 13.77%
Cell cycle distribution S (MCF-7 cells [1]; MCF-7, 1.21 μM for 72 h, control 24.61): 33.84%
Cell cycle distribution G0-G1 (MCF-7 cells [1]; MCF-7, 1.21 μM for 72 h, control 59.04): 52.39%
Increase of early apoptosis compared to untreated cells (MCF-7 cells [2]; MCF-7, 1.21 μM): about 76 times
Increase of late apoptosis compared to untreated cells (MCF-7 cells [2]; MCF-7, 1.21 μM): about 90 fold
Apoptosis Late (Right Top) (MCF-7 cells [2]; MCF-7, 1.21 μM, 72 h, control 0.15): 13.53%
Apoptosis Early (Right Bottom) (MCF-7 cells [2]; MCF-7, 1.21 μM, 72 h, control 0.29): 22.15%
Necrosis (Left Top) (MCF-7 cells [2]; MCF-7, 72 h treatment, control 2.22): 5.34
RM (MCF-7 cells [3]; MCF-7, 48 h, untreated 16.58): 6.16 um
Wound closure (MCF-7 cells [3]; MCF-7, 48 h, untreated 81.62): 30.20 % um^2
Area difference (MCF-7 cells [3]; MCF-7, 48 h, untreated 795.83): 295.83%
Reduction in scratch width (MCF-7 cells [3]; MCF-7, after 48 h, untreated 81.62 %): 30.20%
Scratch width at 48 h (MCF-7 cells [3]; MCF-7, untreated 178.24): 682.93
Scratch area at 48 h (MCF-7 cells [3]; MCF-7, untreated 179.17): 683.83
Scratch width at 24 h (MCF-7 cells [3]; MCF-7, untreated 644.43): 904.16
Scratch area at 24 h (MCF-7 cells [3]; MCF-7, untreated 645.50): 905.17
Scratch width at 0 h (MCF-7 cells [3]; MCF-7, untreated 974.11): 978.78
Scratch area at 0 h (MCF-7 cells [3]; MCF-7, untreated 975.00): 979.67

O=C(CN1C(=O)SC(=Cc2ccc(Cl)cc2Cl)C1=O)Nc1ccc(C(=O)NNC(=O)c2cccc(Cl)c2)cc1 [Compound 23, N-(4-(2-(3-chlorobenzoyl)hydrazine-1-carbonyl)phenyl)-2-(5-(2,4-dichlorobenzylidene)-2,4-dioxothiazolidin-3-yl)acetamide]
IC50 (HepG2): 1180 ± 10 nM
IC50 (MCF-7): 950 ± 10 nM
IC50 (VEGFR-2): 328 ± 14 nM

O=C(CN1C(=O)SC(=Cc2ccc(Cl)cc2Cl)C1=O)Nc1ccc(C(=O)NNC(=O)c2ccccc2O)cc1 [Compound 24, 2-(5-(2,4-Dichlorobenzylidene)-2,4-dioxothiazolidin-3-yl)-N-(4-(2-(2-hydroxybenzoyl) hydrazine-1-carbonyl)phenyl)acetamide]
IC50 (HepG2): 600 ± 20 nM
IC50 (MCF-7): 650 ± 10 nM
IC50 (VEGFR-2): 203 ± 9 nM
